Assay results taken from patent US10112978B2, “Peptide and use thereof” (OSAKA UNIVERSITY, priority 2014, dated 2018).
Ends that are not written are not given here.

Experiments:
THP-1 cells = experiment: CD86 and CD54 expression in THP-1 cells (flow cytometry, RFI); format: cell-based, human; conditions: overnight culture, relative fluorescence intensity
Experimental: THP-1 cells were seeded at a density of 2.0×10^5 cells/mL in 50 mL of RPMI1640 medium containing 10% FBS and 0.05 mM mercaptoethanol in a 75-cm^2 flask, and precultured for 48 hours.
The precultured THP-1 cells were harvested by centrifugation and suspended at 2.0×10^6 cells/mL in RPMI1640 medium containing 10% FBS and 0.05 mM mercaptoethanol, and the cell suspension was added to a 24-well plate at 500 μL/well. Test peptides were separately dissolved in the same medium as above, and 500 μL of each of the solutions was added to separate wells containing the cell suspension.
After overnight culture, the cells were harvested by centrifugation and washed twice with PBS containing 0.1% BSA (FACS buffer). The cells were then dispersed in 600 μL of FACS buffer containing 0.01% human γ-globulin solution (Sigma, G2388), and incubated at 4° C. for 10 minutes for blocking of Fc receptors.
After that, the cell suspension was divided into three 180-μL aliquots in 1.5-mL tubes, the tubes were centrifuged, and the cell pellets were prepared for the reaction with antibodies. To the cell pellets, FITC-labeled antibody solutions separately diluted to appropriate concentrations in FACS buffer were added in a volume of 50 μL, and incubation was performed at 4° C. for 30 minutes. The antibodies used were CD86 antibody (Pharmingen; Cat#555657), CD54 antibody (Dako; Cat# F7143) and isotype control (Mouse IgG) antibody (Dako; Cat#X0927). After the 30-minute incubation, the cells were harvested by centrifugation and washed twice with FACS buffer. The cells harvested by centrifugation were dispersed in 200 μL of FACS buffer containing 0.625 μg/mL propidium iodide, and the expression levels of the cell surface antigens on 1×10^4 viable cells were measured by flow cytometry. Forward and side scatter gating was not used for the analysis, and the relative fluorescence intensity (RFI) was calculated from the measured mean fluorescence intensities (MFI) by the following formula. […]
When the viability of the non-treated control cells (vehicle treatment cells) was 90% or more, the test was considered valid. In the case where the cell viability at a particular sample concentration used in the test was lower than 50%, the data of the CD54 level at the concentration was excluded from the evaluation.

[1] = system: Human hair follicle dermal papilla cells; experiment: Production of growth factors (KGF, HGF, VEGF) by hair follicle dermal papilla cells (ELISA); format: cell-based; conditions: 5 days
Experimental: Human hair follicle dermal papilla cells in DMEM medium containing 10% FBS were seeded at 3×10^4 cells/well on a 24-well plate and cultured in a CO2 incubator overnight. On the following day, the medium was removed, test peptide solutions in DMEM medium containing 1% FBS were added to the plate, and the cells were cultured in a CO2 incubator for 5 days. The culture supernatant was harvested, and the KGF, HGF and VEGF concentrations in the culture supernatant were measured by ELISA.
In this experiment, OSK-1 and AAP-11 were used as the test peptides, and the concentrations of KGF, HGF and VEGF were measured in the same manner as in Example 9.

Substance: ELKLIFLHRLKRLR [AAP-3, C-terminal KRLKRK of OSK-1 deleted]
- expression of CD54 (THP-1 cells): considerably less active
- expression of CD86 (THP-1 cells): considerably less active
- production of the growth factors (KGF, HGF and VEGF concentrations in the culture supernatant) [1]: less effective than OSK-1

Substance: ELKLIFLHRLKRLRKR [AAP-2, C-terminal LKRK of OSK-1 deleted]
- expression of CD54 (THP-1 cells): considerably less active
- expression of CD86 (THP-1 cells): considerably less active
- production of the growth factors (KGF, HGF and VEGF concentrations in the culture supernatant) [1]: less effective than OSK-1

Substance: LKLIFLHRLKRMRKRLdKRK (LKLIFLHRLKRMRKRLKRK; not fully specified (residues 16, 17)) [SR-08, reference compound]
- expression of CD54 (THP-1 cells): OSK-1 was more highly active for inducing CD54 expression than SR-07 and SR-08

Substance: HRLKRLRKRLKRK [AAP-12, seven N-terminal amino acids of OSK-1 deleted]
- expression of CD54 (THP-1 cells): considerably less active than OSK-1
- expression of CD86 (THP-1 cells): considerably less active than OSK-1

Substance: FLHRLKRLRKRL [AAP-11]
- expression of CD54 (THP-1 cells): no considerable reduction in the activity was observed
- expression of CD86 (THP-1 cells): no considerable reduction in the activity was observed
- production of the growth factors (KGF, HGF and VEGF concentrations in the culture supernatant) [1]: promoted the production of the indicated growth factors in a concentration dependent manner

Substance: MLKLIFLHRLKRMRKRLdKRK (MLKLIFLHRLKRMRKRLKRK; not fully specified (residues 17, 18)) [SR-07, reference compound]
- expression of CD54 (THP-1 cells): OSK-1 was more highly active for inducing CD54 expression than SR-07 and SR-08

Substance: LIFLHRLKRLRKRL [AAP-6]
- expression of CD54 (THP-1 cells): no considerable reduction in the activity was observed
- expression of CD86 (THP-1 cells): no considerable reduction in the activity was observed
